{"source": "ChEMBL document CHEMBL5712086", "about": "“Spatially clustered loci with multiple enhancers are frequent targets of HIV-1 integration” (Nat Commun, 2019)", "key": {"CD4+ T cell [1]": {"tested_on": "CD4+ T cell", "test": "Effect on spatial localization of recurrent integration genes of HIV-1 in human CD+ T cells at 500 nM incubated for 6 hrs followed by infection for 72 hrs by 3D immuno-DNA FISH assay", "type": "functional, cell-based", "details": "Human immunodeficiency virus 1, time 78.0 hrs"}, "CD4+ T cell [2]": {"tested_on": "CD4+ T cell", "test": "Down regulation of protein-coding genes proximal to super enhancers in activated human CD+ T cells at 500 nM incubated for 6 hrs by transcriptional profiling relative to coding genes without SE", "type": "functional, cell-based"}, "CD4+ T cell [3]": {"tested_on": "CD4+ T cell", "test": "Effect on HIV-1 insertion biases in human CD+ T cells assessed as insertion rate per chromosome at 500 nM incubated for 6 hrs", "type": "functional, cell-based", "details": "Human immunodeficiency virus 1"}, "[4]": {"target": "T1, Bromodomain and extra-terminal motif (BET) (Homo sapiens) (UniProt P25440+O60885+Q58F21+Q15059)", "details": "CD4+ T cell, dose 500.0 nM, time 20.0 hrs"}, "CD4+ T cell [5]": {"tested_on": "CD4+ T cell", "test": "Effect on spatial localization of HIV-1 in human CD+ T cells at 500 nM incubated for 6 hrs followed by infection for 72 hrs by 3D immuno-DNA FISH assay", "type": "functional, cell-based", "details": "Human immunodeficiency virus 1, time 78.0 hrs"}, "[6]": {"target": "T1, Bromodomain and extra-terminal motif (BET) (Homo sapiens)", "details": "CD4+ T cell, dose 500.0 nM, time 20.0 hrs", "remark": "listed apart in the source"}, "CD4+ T cell [7]": {"tested_on": "CD4+ T cell", "test": "Upregulation of protein-coding genes proximal to super enhancers in activated human CD+ T cells at 500 nM incubated for 6 hrs by transcriptional profiling relative to coding genes without SE", "type": "functional, cell-based"}}, "note": "Calls of active or inactive are those of the source. No cut-off for these calls is given here.", "data": [{"compound": "Cc1sc2c(c1C)C(c1ccc(Cl)cc1)=N[C@@H](CC(=O)OC(C)(C)C)c1nnc(C)n1-2", "values": [{"measurement": "Activity", "setting": "CD4+ T cell [1]", "result": "inactive"}, {"measurement": "Activity", "setting": "CD4+ T cell [2]", "result": "Active"}, {"measurement": "Activity", "setting": "CD4+ T cell [3]", "result": "inactive"}, {"measurement": "inhibition", "setting": "[4]", "result": "Active"}, {"measurement": "Activity", "setting": "CD4+ T cell [5]", "result": "inactive"}, {"measurement": "inhibition", "setting": "[6]", "result": "Active"}, {"measurement": "Activity", "setting": "CD4+ T cell [7]", "result": "Active"}]}]}
